Results from patent publication US20250215039A1, “NUCLEOSIDES FOR TREATING CANCER” (PRIMEFOUR THERAPEUTICS, INC., priority 2022, published 2025).
Read-outs that look alike come from different tables or passages of the source.

Tested on: cancer cell lines
Assay: Cancer cell proliferation activity (CellTiterGlo, 72 h)
Assay type: cell-based
Details: 72 h, 72 h, read-out: IC50 cell proliferation
In short: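 Cells seeded overnight at 37 °C, then dosed with compound at 0.1% final DMSO and incubated 72 h at 37 °C (5% or 10% CO2 by medium).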

IC50 (5637 (bladder)): 1 nM | IC50 (CLS439 (bladder)): 23 nM | IC50 (HS729 (muscle)): 15 nM | IC50 (J82 (bladder)): 5 nM | IC50 (JAR (placenta)): 18 nM | IC50 (MT3 (breast)): 4 nM | IC50 (PANCI (pancreas)): 28 nM | IC50 (PC3 (prostate)): 14 nM | IC50 (RD (muscle)): 10 nM | IC50 (T24 (bladder)): 5 nM | IC50 (Homo sapiens, 22Rv1, 72 h, 22RV1 (prostate)): 2 nM | IC50 (Homo sapiens, 786-0, 72 h, 786O (kidney)): 17 nM | IC50 (Homo sapiens, A204, 72 h, A204 (muscle)): 51 nM | IC50 (Homo sapiens, A549, 72 h, A549 (lung)): 14 nM | IC50 (Homo sapiens, A673, 72 h, A673 (bone)): 3 nM | IC50 (Homo sapiens, A2780, 72 h, A2780 (ovary)): 8 nM | IC50 (Homo sapiens, A-375, 72 h, A375 (skin)): 7 nM | IC50 (Homo sapiens, A-431, 72 h, A431 (skin)): 0.4 nM | IC50 (Homo sapiens, ACHN, ACHN (kidney)): 3 nM | IC50 (Homo sapiens, ASPC1, 72 h, ASPC1 (pancreas)): 8 nM | IC50 (Homo sapiens, BT-20, 72 h, BT20 (breast)): > 50000 nM | IC50 (Homo sapiens, BXPC-3, 72 h, BXPC3 (pancreas)): 1 nM | IC50 (Homo sapiens, C-33-A, C33A (endometrial)): 9 nM | IC50 (Homo sapiens, CAKI-1, 72 h, CAKI1 (kidney)): 45 nM | IC50 (Homo sapiens, COLO 205, 72 h, COLO205 (colon)): 1 nM | IC50 (Homo sapiens, COLO-678, 72 h, COLO678 (colon)): > 50000 nM | IC50 (Homo sapiens, Ca-Ski, CASKI (endometrial)): 23 nM | IC50 (Homo sapiens, Caco-2, 72 h, CACO2 (colon)): > 50000 nM | IC50 (Homo sapiens, Calu-6, 72 h, CALU6 (lung)): 29 nM | IC50 (Homo sapiens, DLD-1, 72 h, DLD1 (colon)): 16 nM | IC50 (Homo sapiens, DU-145, 72 h, DU145 (prostate)): 10 nM | IC50 (Homo sapiens, EFO-21, 72 h, EFO21 (ovary)): 476 nM | IC50 (Homo sapiens, EJ-28, 72 h, EJ28 (bladder)): 4 nM | IC50 (Homo sapiens, Granta-519, 72 h, GRANTA-519 (hematological)): 9 nM | IC50 (Homo sapiens, HCT-15, 72 h, HCT15 (colon)): 15 nM | IC50 (Homo sapiens, HCT-116, 72 h, HCT116 (colon)): 23 nM | IC50 (Homo sapiens, HEK293, 72 h, HEK293 (kidney)): 30 nM | IC50 (Homo sapiens, HL-60, 72 h, HL-60 (hematological)): 8 nM | IC50 (Homo sapiens, HT-29, 72 h, HT29 (colon)): 2 nM | IC50 (Homo sapiens, HT-1080, 72 h, HT1080 (connective tissue)): 8 nM | IC50 (Homo sapiens, HeLa, HELA (endometrial)): 1530 nM | IC50 (Homo sapiens, HepG2, 72 h, HEPG2 (liver)): 2 nM | IC50 (Homo sapiens, Hs-578T, HS578T (breast)): > 50000 nM | IC50 (Homo sapiens, IGROV-1, 72 h, IGROV1 (ovary)): 22 nM | IC50 (Homo sapiens, IMR-90, 72 h, IMR90 (lung)): > 50000 nM | IC50 (Homo sapiens, JEG-3, 72 h, JEG3 (placenta)): 2 nM | IC50 (Homo sapiens, JIMT-1, 72 h, JIMT1 (breast)): 34 nM | IC50 (Homo sapiens, K562, 72 h, K-562 (hematological)): 94 nM | IC50 (Homo sapiens, Kasumi 1, 72 h, KASUMI-1 (hematological)): 16 nM | IC50 (Homo sapiens, L-363, 72 h, L-363 (hematological)): 3 nM | IC50 (Homo sapiens, LoVo, LOVO (colon)): 2 nM | IC50 (Homo sapiens, MCF7, 72 h, MCF7 (breast)): 2 nM | IC50 (Homo sapiens, MDA-MB-231, 72 h, MDAMB231 (breast)): 381 nM | IC50 (Homo sapiens, MDA-MB-435, 72 h, MDAMB435 (skin)): 17 nM | IC50 (Homo sapiens, MDA-MB-436, 72 h, MDAMB436 (breast)): 3 nM | IC50 (Homo sapiens, MDA-MB-468, 72 h, MDAMB468 (breast)): 18 nM | IC50 (Homo sapiens, MG-63, 72 h, MG63 (bone)): 10 nM | IC50 (Homo sapiens, MHH-ES-1, 72 h, MHHES1 (bone)): 5 nM | IC50 (Homo sapiens, MIA PaCa-2, 72 h, MIAPACA2 (pancreas)): 16 nM | IC50 (Homo sapiens, MINO, MINO (hematological)): 1 nM | IC50 (Homo sapiens, MV4-11, 72 h, MV4-11 (hematological)): 1 nM | IC50 (Homo sapiens, NCI-H23, 72 h, NCI-H23 (lung)): 8 nM | IC50 (Homo sapiens, NCI-H82, 72 h, NCIH82 (lung)): 6 nM | IC50 (Homo sapiens, NCI-H292, 72 h, NCIH292 (lung)): 19 nM | IC50 (Homo sapiens, NCI-H460, 72 h, NCIH460 (lung)): 2 nM | IC50 (Homo sapiens, OVCAR-3, 72 h, OVCAR3 (ovary)): 15 nM | IC50 (Homo sapiens, OVCAR-4, 72 h, OVCAR4 (ovary)): 538 nM | IC50 (Homo sapiens, PLC-PRF-5, 72 h, PLCPRF5 (liver)): 19 nM | IC50 (Homo sapiens, Panc1005, 72 h, PANC1005 (pancreas)): 553 nM | IC50 (Homo sapiens, Ramos, RAMOS (hematological)): 18 nM | IC50 (Homo sapiens, SAOS-2, 72 h, SAOS2 (bone)): 3 nM | IC50 (Homo sapiens, SF-268, 72 h, SF268 (brain)): 7 nM | IC50 (Homo sapiens, SF-295, 72 h, SF295 (brain)): 7 nM | IC50 (Homo sapiens, SK-HEP1, 72 h, SKHEP1 (liver)): 16 nM | IC50 (Homo sapiens, SK-LMS-1, 72 h, SKLMS1 (uterus)): 11 nM | IC50 (Homo sapiens, SK-MEL-5, 72 h, SKMEL5 (skin; SKMELS [sic] in Table 9E)): 29 nM | IC50 (Homo sapiens, SK-MEL-28, 72 h, SKMEL28 (skin)): 112 nM | IC50 (Homo sapiens, SK-N-AS, SKNAS (brain)): > 50000 nM | IC50 (Homo sapiens, SK-N-SH, SKNSH (brain)): 151 nM | IC50 (Homo sapiens, SK-OV-3, 72 h, SKOV3 (ovary)): 28 nM | IC50 (Homo sapiens, SNB-75, 72 h, SNB75 (brain)): > 50000 nM | IC50 (Homo sapiens, SU-DHL10, 72 h, SU-DHL-10 (hematological)): 226 nM | IC50 (Homo sapiens, SU-DHL-6, 72 h, SU-DHL-6 (hematological)): 7 nM | IC50 (Homo sapiens, SW-620, 72 h, SW620 (colon)): 2 nM | IC50 (Homo sapiens, TE-671, 72 h, TE671 (muscle)): 8 nM | IC50 (Homo sapiens, THP-1, 72 h, THP-1 (hematological)): 2 nM | IC50 (Homo sapiens, U2OS, U20S (bone; U2OS in Table 9E)): > 50000 nM | IC50 (Homo sapiens, U-87 MG, U87MG (brain)): > 50000 nM | IC50 (Homo sapiens, UMUC3, 72 h, UMUC3 (bladder)): 7 nM | IC50 (Homo sapiens, UO-31, 72 h, UO31 (kidney)): 31 nM | IC50 (Homo sapiens, WSU-NHL, WSU-NHL (hematological)): 1 nM | IC50 (NCI-H358M, NCIH358M (lung)): 6 nM | IC50 (PBMC, PBMC (hematological)): > 50000 nM | IC50 (RD-ES, RDES (bone)): 7 nM
Structure (SMILES): Nc1nc(=O)n([C@H]2C[C@H](O)[C@@H](CO)O2)cc1F [compound 169, 4-amino-5-fluoro-1-((2R,4S,5R)-4-hydroxy-5-(hydroxymethyl)tetrahydrofuran-2-yl)pyrimidin-2(1H)-one]
